Target: T1, AMPK A1/B1/G1 (Homo sapiens, UniProt Q13131)
T1 construct: purchased Thermo Fisher Scientific (Life Technologies) SelectScreen
Assay: SelectScreen Z'LYTE
Type: biochemical
In short: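 SelectScreen broad panel; activity (Z'LYTE, Adapta) plus binding formats. ATP: Km app for CSF1R Z'LYTE; 10 for CAMK1 Adapta. Readout = % per kinase.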

T1 sequence (Q13131 whole entry): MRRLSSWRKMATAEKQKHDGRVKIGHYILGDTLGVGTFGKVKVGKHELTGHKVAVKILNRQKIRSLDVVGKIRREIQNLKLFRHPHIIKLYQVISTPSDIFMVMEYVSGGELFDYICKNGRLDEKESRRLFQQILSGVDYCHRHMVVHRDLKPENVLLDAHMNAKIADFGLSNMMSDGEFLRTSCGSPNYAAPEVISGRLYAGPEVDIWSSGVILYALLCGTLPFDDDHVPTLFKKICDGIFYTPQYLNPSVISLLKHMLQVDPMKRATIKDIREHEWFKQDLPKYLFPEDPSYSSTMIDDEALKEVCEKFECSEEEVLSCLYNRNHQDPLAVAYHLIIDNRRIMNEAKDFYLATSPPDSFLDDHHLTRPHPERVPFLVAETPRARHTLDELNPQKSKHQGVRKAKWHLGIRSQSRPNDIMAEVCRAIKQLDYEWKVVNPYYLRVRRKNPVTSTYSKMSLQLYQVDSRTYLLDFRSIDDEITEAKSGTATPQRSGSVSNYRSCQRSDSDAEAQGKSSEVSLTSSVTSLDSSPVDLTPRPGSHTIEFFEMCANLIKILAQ
T1 sequence (Q9Y478 whole entry partner): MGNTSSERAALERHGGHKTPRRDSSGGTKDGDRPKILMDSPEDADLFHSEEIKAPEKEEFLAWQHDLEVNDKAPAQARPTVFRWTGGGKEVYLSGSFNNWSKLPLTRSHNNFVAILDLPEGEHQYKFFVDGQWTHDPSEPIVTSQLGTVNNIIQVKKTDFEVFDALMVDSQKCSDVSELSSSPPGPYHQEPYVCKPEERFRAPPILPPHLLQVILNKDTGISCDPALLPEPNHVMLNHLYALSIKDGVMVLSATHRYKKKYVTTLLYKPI
T1 sequence (P54619 whole entry partner): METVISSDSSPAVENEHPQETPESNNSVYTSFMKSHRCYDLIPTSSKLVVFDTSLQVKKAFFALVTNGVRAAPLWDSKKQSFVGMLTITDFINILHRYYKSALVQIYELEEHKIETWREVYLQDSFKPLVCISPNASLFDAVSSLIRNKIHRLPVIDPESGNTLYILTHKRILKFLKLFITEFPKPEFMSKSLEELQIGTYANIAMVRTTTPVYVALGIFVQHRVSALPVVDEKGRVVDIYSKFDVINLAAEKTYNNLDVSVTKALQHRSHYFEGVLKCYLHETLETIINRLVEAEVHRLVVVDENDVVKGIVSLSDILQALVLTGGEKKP

`CN(C(=O)CN1CCOCC1)c1ccc2sc3c(-c4cccc5c(=O)cc(N6CC7CCC(C6)O7)oc45)cccc3c2c1` [NU5455] showed an inhibition at 1 µM of -1.2%.

Reference: publication PMC6934184, “Selective DNA-PKcs inhibition extends the therapeutic index of localized radiotherapy and chemotherapy” (The Journal of Clinical Investigation, 2019)
